Measured values as given in patent publication US20100074939A1 (OsteoGeneX Inc., priority 2008, published 2010).
Structures can show the parent of a compound that is named as a salt.

Experiments:
mouse = experiment: Bone formation in treated vs control mice by micro-CT (Example 1); type: in vivo; settings: test vs control solution, after complete dosing schedule
Description: Compounds useful in the methods of the present invention can be identified via a variety of methods known to one of skill in the art. Several exemplary methods for identifying such antagonists are described herein, including cell-based and in vitro techniques (Journal of Bone and Mineral Research 2006, 21(11), 1738-1749). A general method of identifying SOST antagonists involves evaluating the effects of antagonist candidates on bone formation under controlled conditions. Preferably bone formation is determined using micro-CT techniques on live animals. Preferred animals include rodents, more preferred are primates. Femur, tibia and vertebrae bones are particularly useful subjects for such study.
Briefly, the test animal is treated with a predetermined dose of a SOST antagonist candidate. […]
Once the dosing schedule has been completed, both test and control animals are examined to determine the quantity of bone formation present. […] Where necessary, levels of bone formation can be calculated by determining the volume of bone formation present in each animal. […]
For example, the mouse test animal is treated with a predetermined dose of a SOST antagonist candidate for a complete dosing schedule. […] Once the dosing schedule has been completed, both test and control animals are examined with sacrifice using micro-CT to determine the quantity of bone formation present.

Wnt pathway = Wnt pathway modulation to promote bone growth (FIG. 1); settings: doses of 2.5 ng (low), 60 ng (medium), 125 ng (high)
Experimental: For example, the mouse test animal is treated with a predetermined dose of a SOST antagonist candidate for a complete dosing schedule. A control mouse is treated with a control solution, preferably a non-irritating buffer solution or other carrier. Once the dosing schedule has been completed, both test and control animals are examined with sacrifice using micro-CT to determine the quantity of bone formation present.

C57BL/6 mice [1] = experiment: Femur bone density/volume by pQCT, 30-day i.p. study (FIG. 2); type: in vivo, mouse; settings: male C57BL/6 mice, daily i.p. 30 days, 40 mg/kg
Experimental: (§1) Four month old male C57BL/6 mice were treated daily with saline vehicle or the sclerostin inhibitor of harmine hydrochloride at 20 (“L”), 40 (“M”) or 90 (“H”) mg/kg (via i.p) for 30 days. Study endpoints included measurement of femur bone volume by pQCT analysis (FIG. 2), and a biochemical marker of bone formation, osteocalcin, measured by EIA Elisa (FIG. 3). […] Lumbar vertebra L5 bone volume increased 2% over saline baseline, as measured by uCT, and 73%, as measured by DEXA Piximus.

C57BL/6 mice [2] = experiment: Serum osteocalcin bone formation marker by EIA Elisa, 30-day i.p. study (FIG. 3); type: in vivo, mouse; settings: male C57BL/6 mice, 40 mg/kg daily i.p. 30 days
Experimental: as §1

C57BL/6 mice [3] = experiment: Lumbar vertebra L5 bone volume by uCT, 30-day i.p. study; type: in vivo, mouse; settings: measured by uCT; male C57BL/6 mice, daily i.p. 30 days; dose not stated
Experimental: as §1

C57BL/6 mice [4] = experiment: Lumbar vertebra L5 bone volume by DEXA Piximus, 30-day i.p. study; type: in vivo, mouse; settings: measured by DEXA Piximus; male C57BL/6 mice, daily i.p. 30 days; dose not stated
Experimental: as §1

`COc1ccc2c(c1)[nH]c1c(C)nccc12` [harmine hydrochloride] was tested, and the “bone growth (quantity of bone formation by micro-CT)” value (mouse) was “promoting bone growth”, the “modulation of the Wnt pathway to promote bone growth” value (Wnt pathway) was “modulating the Wnt pathway to promote bone growth” and the “increase over baseline for femur bone density” value (C57BL/6 mice [1]) was 13%. For the same molecule, the “percent increase in serum osteocalcin bone formation marker over saline controls” value (C57BL/6 mice [2]) was 65%, the “Lumbar vertebra L5 bone volume increase over saline baseline” value (C57BL/6 mice [3]) was 2% and the “Lumbar vertebra L5 bone volume increase over saline baseline” value (C57BL/6 mice [4]) was 73%.
